Results: ChEMBL document CHEMBL4649989, “Design of a Chemical Probe for the Bromodomain and Plant Homeodomain Finger-Containing (BRPF) Family of Proteins” (J Med Chem, 2017)
“And” between values parts separate entries of the source, which are not always exact repeats. Equal values may be shown once.

Columns and labels:
[1] = molecular target: Tyrosine-protein kinase BAZ1B (Homo sapiens) (UniProt Q9UIG0); conditions: Compound concentration 10.0 uM
[2] = molecular target: Bromodomain and WD repeat-containing protein 1 (Homo sapiens) (UniProt Q9NSI6); conditions: Compound concentration 10.0 uM
[3] = molecular target: PH-interacting protein (Homo sapiens) (UniProt Q8WWQ0); conditions: Compound concentration 10.0 uM
[4] = molecular target: Histone-lysine N-methyltransferase ASH1L (Homo sapiens) (UniProt Q9NR48); conditions: Compound concentration 10.0 uM
[5] = molecular target: Protein polybromo-1 (Homo sapiens) (UniProt Q86U86); conditions: Compound concentration 10.0 uM
Chain of Protein polybromo-1 (Homo sapiens) (Q86U86 whole entry): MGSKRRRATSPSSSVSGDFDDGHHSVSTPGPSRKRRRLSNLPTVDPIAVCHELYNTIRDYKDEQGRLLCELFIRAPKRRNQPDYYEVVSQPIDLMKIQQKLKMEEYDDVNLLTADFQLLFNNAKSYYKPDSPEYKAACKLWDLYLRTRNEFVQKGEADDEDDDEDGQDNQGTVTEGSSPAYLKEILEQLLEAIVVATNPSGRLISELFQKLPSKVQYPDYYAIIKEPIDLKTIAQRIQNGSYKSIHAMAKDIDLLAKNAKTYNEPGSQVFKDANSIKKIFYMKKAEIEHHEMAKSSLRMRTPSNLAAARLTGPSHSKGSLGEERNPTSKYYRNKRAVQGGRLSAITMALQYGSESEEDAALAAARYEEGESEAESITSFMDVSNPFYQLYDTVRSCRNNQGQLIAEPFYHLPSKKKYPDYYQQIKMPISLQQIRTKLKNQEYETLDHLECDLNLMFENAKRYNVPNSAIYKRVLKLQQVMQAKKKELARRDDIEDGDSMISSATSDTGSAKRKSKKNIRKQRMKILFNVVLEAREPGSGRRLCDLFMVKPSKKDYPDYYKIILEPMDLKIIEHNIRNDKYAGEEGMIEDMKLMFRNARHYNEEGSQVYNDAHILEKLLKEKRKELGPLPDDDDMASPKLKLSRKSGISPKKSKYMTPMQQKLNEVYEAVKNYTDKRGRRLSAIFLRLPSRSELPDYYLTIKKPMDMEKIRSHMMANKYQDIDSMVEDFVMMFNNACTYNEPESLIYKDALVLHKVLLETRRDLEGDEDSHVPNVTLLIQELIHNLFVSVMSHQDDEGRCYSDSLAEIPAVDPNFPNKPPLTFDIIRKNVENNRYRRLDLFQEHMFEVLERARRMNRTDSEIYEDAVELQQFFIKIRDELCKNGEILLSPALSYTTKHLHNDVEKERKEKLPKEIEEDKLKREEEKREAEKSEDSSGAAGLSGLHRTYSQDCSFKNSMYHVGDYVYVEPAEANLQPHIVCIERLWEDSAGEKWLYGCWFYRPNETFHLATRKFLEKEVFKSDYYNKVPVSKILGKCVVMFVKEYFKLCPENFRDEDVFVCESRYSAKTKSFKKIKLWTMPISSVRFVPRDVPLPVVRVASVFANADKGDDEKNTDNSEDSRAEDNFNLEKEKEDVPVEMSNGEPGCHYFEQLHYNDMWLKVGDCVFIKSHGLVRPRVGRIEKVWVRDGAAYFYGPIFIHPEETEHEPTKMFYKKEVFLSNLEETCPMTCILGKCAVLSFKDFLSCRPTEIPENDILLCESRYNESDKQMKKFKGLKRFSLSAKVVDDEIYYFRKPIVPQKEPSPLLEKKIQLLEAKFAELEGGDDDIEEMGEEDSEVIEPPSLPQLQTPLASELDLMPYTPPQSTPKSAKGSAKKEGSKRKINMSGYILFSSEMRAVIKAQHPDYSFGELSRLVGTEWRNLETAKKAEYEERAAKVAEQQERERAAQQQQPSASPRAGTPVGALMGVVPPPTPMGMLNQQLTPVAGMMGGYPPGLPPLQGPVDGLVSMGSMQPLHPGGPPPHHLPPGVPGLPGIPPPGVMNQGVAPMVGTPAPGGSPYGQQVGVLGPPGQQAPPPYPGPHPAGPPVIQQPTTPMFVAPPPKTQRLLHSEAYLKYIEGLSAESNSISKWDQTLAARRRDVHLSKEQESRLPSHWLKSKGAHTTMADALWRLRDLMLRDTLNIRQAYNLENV

Peregrin (Homo sapiens) [6] = molecular target: Peregrin (Homo sapiens) (UniProt P55201); conditions: Compound concentration 10.0 uM
Chain of Peregrin (Homo sapiens) (P55201 whole entry): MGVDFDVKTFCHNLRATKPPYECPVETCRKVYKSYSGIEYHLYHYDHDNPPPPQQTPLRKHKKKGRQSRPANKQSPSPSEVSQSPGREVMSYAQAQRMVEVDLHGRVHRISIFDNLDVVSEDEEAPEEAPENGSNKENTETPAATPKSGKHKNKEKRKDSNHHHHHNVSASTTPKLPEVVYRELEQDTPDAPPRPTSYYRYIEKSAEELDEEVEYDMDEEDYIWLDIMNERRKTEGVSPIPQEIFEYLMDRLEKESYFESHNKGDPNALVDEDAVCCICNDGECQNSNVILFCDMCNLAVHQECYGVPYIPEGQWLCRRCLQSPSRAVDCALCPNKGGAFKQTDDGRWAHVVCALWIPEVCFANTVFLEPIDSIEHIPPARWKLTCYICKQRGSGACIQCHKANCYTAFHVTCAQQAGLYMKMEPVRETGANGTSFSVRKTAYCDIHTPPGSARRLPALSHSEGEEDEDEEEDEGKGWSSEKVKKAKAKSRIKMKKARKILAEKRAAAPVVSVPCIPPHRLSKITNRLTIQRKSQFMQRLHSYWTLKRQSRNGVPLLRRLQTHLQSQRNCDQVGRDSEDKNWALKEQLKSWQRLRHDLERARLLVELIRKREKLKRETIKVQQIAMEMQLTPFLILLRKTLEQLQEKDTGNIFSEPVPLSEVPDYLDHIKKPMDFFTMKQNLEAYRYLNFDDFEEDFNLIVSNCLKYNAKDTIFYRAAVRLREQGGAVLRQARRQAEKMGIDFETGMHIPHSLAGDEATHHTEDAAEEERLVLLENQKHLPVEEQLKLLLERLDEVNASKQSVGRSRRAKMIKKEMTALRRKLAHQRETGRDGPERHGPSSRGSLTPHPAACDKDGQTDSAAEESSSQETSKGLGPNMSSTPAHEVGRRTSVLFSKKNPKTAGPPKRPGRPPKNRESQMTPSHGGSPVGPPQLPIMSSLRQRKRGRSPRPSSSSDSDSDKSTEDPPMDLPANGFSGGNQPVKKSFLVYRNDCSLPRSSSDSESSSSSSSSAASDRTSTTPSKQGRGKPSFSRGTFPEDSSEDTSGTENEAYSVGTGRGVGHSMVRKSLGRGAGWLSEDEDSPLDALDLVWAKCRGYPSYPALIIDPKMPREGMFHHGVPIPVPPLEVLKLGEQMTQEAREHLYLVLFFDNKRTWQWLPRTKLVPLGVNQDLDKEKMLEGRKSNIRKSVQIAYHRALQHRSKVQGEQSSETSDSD

[7] = molecular target: Bromodomain-containing protein 2 (Homo sapiens) (UniProt P25440); conditions: Compound concentration 10.0 uM
[8] = molecular target: Transcription initiation factor TFIID subunit 1 (Homo sapiens) (UniProt P21675); conditions: Compound concentration 10.0 uM
[9] = molecular target: Nuclear body protein SP140 (Homo sapiens) (UniProt Q13342); conditions: Compound concentration 10.0 uM
[10] = molecular target: Transcription initiation factor TFIID subunit 1-like (Homo sapiens) (UniProt Q8IZX4); conditions: Compound concentration 10.0 uM
[11] = molecular target: Histone-lysine N-methyltransferase 2A (Homo sapiens) (UniProt Q03164); conditions: Compound concentration 10.0 uM
Peregrin (Homo sapiens) [12] = molecular target: Peregrin (Homo sapiens) (UniProt P55201); conditions: Compound concentration 10.0 uM; remark: listed apart in the source
[13] = molecular target: Transcription intermediary factor 1-alpha (Homo sapiens) (UniProt O15164); conditions: Compound concentration 10.0 uM
Chain of Transcription intermediary factor 1-alpha (Homo sapiens) (O15164 whole entry): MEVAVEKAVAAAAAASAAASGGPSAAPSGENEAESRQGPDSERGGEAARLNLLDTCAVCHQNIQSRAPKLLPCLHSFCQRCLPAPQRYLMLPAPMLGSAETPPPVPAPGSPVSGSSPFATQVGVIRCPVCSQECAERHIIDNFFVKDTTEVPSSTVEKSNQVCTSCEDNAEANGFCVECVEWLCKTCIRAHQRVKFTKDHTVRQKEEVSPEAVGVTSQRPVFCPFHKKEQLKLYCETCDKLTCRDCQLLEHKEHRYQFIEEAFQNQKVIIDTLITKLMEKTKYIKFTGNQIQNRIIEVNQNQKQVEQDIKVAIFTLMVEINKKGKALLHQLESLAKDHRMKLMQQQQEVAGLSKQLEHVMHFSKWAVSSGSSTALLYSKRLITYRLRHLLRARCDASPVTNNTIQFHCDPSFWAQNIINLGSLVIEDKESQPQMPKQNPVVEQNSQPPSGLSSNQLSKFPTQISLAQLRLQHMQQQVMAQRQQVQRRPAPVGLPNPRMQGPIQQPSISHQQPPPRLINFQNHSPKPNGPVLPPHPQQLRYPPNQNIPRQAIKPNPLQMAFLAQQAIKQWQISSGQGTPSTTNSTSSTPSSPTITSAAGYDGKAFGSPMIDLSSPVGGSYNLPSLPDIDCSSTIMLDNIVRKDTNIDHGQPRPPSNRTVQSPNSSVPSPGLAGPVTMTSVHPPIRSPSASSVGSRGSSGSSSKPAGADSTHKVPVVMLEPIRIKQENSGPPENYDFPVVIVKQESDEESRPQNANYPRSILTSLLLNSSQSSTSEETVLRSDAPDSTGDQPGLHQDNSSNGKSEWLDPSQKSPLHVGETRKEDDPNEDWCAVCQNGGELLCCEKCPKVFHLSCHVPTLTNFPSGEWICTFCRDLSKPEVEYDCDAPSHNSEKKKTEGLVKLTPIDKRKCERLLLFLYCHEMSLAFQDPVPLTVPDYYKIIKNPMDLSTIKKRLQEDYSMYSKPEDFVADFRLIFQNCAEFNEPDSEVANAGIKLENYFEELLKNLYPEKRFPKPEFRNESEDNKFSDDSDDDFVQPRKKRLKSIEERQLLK

[14] = molecular target: Protein polybromo-1 (Homo sapiens) (UniProt Q86U86); conditions: Compound concentration 10.0 uM; remark: listed apart in the source
[15] = molecular target: Bromodomain-containing protein 4 (Homo sapiens) (UniProt O60885); conditions: Compound concentration 10.0 uM
[16] = molecular target: Histone acetyltransferase p300 (Homo sapiens) (UniProt Q09472); conditions: Compound concentration 10.0 uM
[17] = molecular target: Nucleosome-remodeling factor subunit BPTF (Homo sapiens) (UniProt Q12830); conditions: Compound concentration 25.0 uM, Protein concentration 19.0 uM
Description: Alphascreen assay. Domain start/stop: S2791-H2911

[18] = molecular target: CREB-binding protein (Homo sapiens) (UniProt Q92793); conditions: Compound concentration 10.0 uM
[19] = molecular target: Chromatin remodeling regulator CECR2 (Homo sapiens) (UniProt Q9BXF3); conditions: Compound concentration 25.0 uM, Protein concentration 19.0 uM
[20] = molecular target: Bromodomain-containing protein 4 (Homo sapiens) (UniProt O60885); conditions: Compound concentration 10.0 uM; remark: listed apart in the source
[21] = molecular target: SWI/SNF-related matrix-associated actin-dependent regulator of chromatin subfamily A member 2 (Homo sapiens) (UniProt P51531); conditions: Compound concentration 10.0 uM
[22] = molecular target: Protein polybromo-1 (Homo sapiens) (UniProt Q86U86); conditions: Compound concentration 10.0 uM; remark: listed apart in the source
[23] = molecular target: Bromodomain testis-specific protein (Homo sapiens) (UniProt Q58F21); conditions: Compound concentration 10.0 uM
[24] = molecular target: Transcription intermediary factor 1-beta (Homo sapiens) (UniProt Q13263); conditions: Compound concentration 10.0 uM
[25] = molecular target: ATPase family AAA domain-containing protein 2 (Homo sapiens) (UniProt Q6PL18); conditions: Compound concentration 10.0 uM
[26] = molecular target: Histone acetyltransferase KAT2B (Homo sapiens) (UniProt Q92831); conditions: Compound concentration 10.0 uM
[27] = molecular target: Transcription initiation factor TFIID subunit 1 (Homo sapiens) (UniProt P21675); conditions: Compound concentration 10.0 uM; remark: listed apart in the source
[28] = molecular target: Protein polybromo-1 (Homo sapiens) (UniProt Q86U86); conditions: Compound concentration 10.0 uM; remark: listed apart in the source
[29] = molecular target: Nucleosome-remodeling factor subunit BPTF (Homo sapiens) (UniProt Q12830); conditions: Compound concentration 10.0 uM
[30] = molecular target: Bromodomain-containing protein 7 (Homo sapiens) (UniProt Q9NPI1); conditions: Compound concentration 10.0 uM
[31] = molecular target: Chromatin remodeling regulator CECR2 (Homo sapiens) (UniProt Q9BXF3); conditions: Compound concentration 10.0 uM
[32] = molecular target: Bromodomain adjacent to zinc finger domain protein 2A (Homo sapiens) (UniProt Q9UIF9); conditions: Compound concentration 10.0 uM
[33] = molecular target: Bromodomain-containing protein 3 (Homo sapiens) (UniProt Q15059); conditions: Compound concentration 10.0 uM
Chain of Bromodomain-containing protein 3 (Homo sapiens) (Q15059 2-726 limits assumed): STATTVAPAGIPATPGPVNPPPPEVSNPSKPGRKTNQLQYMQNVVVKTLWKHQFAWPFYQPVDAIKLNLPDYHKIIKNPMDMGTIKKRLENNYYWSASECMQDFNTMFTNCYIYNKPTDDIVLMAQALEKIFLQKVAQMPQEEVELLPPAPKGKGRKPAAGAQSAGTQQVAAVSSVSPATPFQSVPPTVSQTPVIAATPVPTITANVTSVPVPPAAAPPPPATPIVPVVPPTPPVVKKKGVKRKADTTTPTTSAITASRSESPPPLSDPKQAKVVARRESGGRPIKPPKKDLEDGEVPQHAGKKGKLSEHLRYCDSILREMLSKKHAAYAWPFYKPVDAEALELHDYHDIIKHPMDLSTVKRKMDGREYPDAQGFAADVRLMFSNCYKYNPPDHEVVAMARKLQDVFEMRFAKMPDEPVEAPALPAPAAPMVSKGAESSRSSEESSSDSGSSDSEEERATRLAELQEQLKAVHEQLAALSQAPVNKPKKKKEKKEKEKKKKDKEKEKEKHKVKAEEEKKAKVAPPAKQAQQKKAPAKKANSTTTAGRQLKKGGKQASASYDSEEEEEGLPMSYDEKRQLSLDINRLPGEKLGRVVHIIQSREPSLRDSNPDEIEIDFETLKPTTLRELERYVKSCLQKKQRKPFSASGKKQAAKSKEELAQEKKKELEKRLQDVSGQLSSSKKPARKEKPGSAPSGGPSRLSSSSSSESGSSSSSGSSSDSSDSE

[34] = molecular target: Protein polybromo-1 (Homo sapiens) (UniProt Q86U86); conditions: Compound concentration 10.0 uM; remark: listed apart in the source
[35] = molecular target: Transcription initiation factor TFIID subunit 1-like (Homo sapiens) (UniProt Q8IZX4); conditions: Compound concentration 10.0 uM; remark: listed apart in the source
[36] = molecular target: Bromodomain and WD repeat-containing protein 3 (Homo sapiens) (UniProt Q6RI45); conditions: Compound concentration 10.0 uM
[37] = molecular target: PH-interacting protein (Homo sapiens) (UniProt Q8WWQ0); conditions: Compound concentration 50.0 uM, Protein concentration 0.025 uM
[38] = molecular target: Bromodomain-containing protein 1 (Homo sapiens) (UniProt O95696); conditions: Compound concentration 10.0 uM
[39] = molecular target: ATPase family AAA domain-containing protein 2 (Homo sapiens) (UniProt Q6PL18); conditions: Compound concentration 25.0 uM, Protein concentration 225.0 uM
Description: Alphascreen assay. Domain start/stop: Q981-R1108

[40] = molecular target: ATPase family AAA domain-containing protein 2B (Homo sapiens) (UniProt Q9ULI0); conditions: Compound concentration 10.0 uM
[41] = molecular target: Bromodomain-containing protein 1 (Homo sapiens) (UniProt O95696); conditions: Compound concentration 25.0 uM, Protein concentration 50.0 uM
Description: Alphascreen assay. Domain start/stop: E556-A688

[42] = molecular target: Bromodomain-containing protein 2 (Homo sapiens) (UniProt P25440); conditions: Compound concentration 10.0 uM; remark: listed apart in the source
[43] = molecular target: Bromodomain-containing protein 9 (Homo sapiens) (UniProt Q9H8M2); conditions: Compound concentration 10.0 uM
[44] = molecular target: Bromodomain-containing protein 9 (Homo sapiens) (UniProt Q9H8M2); conditions: Compound concentration 10.0 uM; remark: listed apart in the source
Description: Thermal Shift Assay. Domain start/stop: L14-S134

[45] = molecular target: Bromodomain-containing protein 1 (Homo sapiens, UniProt O95696)
[46] = molecular target: Nuclear body protein SP140-like protein (Homo sapiens) (UniProt Q9H930); conditions: Compound concentration 10.0 uM
[47] = molecular target: Protein polybromo-1 (Homo sapiens) (UniProt Q86U86); conditions: Compound concentration 10.0 uM; remark: listed apart in the source
[48] = molecular target: Chromatin remodeling regulator CECR2 (Homo sapiens) (UniProt Q9BXF3); conditions: Compound concentration 10.0 uM; remark: listed apart in the source
[49] = molecular target: E3 ubiquitin-protein ligase TRIM33 (Homo sapiens) (UniProt Q9UPN9); conditions: Compound concentration 25.0 uM
[50] = molecular target: CREB-binding protein (Homo sapiens) (UniProt Q92793); conditions: Compound concentration 5.0 uM
Description: Alphascreen assay. Domain start/stop: R1081-G1197

[51] = molecular target: SWI/SNF-related matrix-associated actin-dependent regulator of chromatin subfamily A member 4 (Homo sapiens) (UniProt P51532); conditions: Compound concentration 10.0 uM
[52] = molecular target: Bromodomain adjacent to zinc finger domain protein 2B (Homo sapiens) (UniProt Q9UIF8); conditions: Compound concentration 10.0 uM
[53] = molecular target: Bromodomain-containing protein 3 (Homo sapiens) (UniProt Q15059); conditions: Compound concentration 10.0 uM; remark: listed apart in the source
[54] = molecular target: Histone acetyltransferase KAT2A (Homo sapiens) (UniProt Q92830); conditions: Compound concentration 10.0 uM
Peregrin = Peregrin (Homo sapiens, UniProt P55201); experiment: Alphascreen assay. Binding to BRPF1B (domain start/stop: M626-G740) by alphascreen assay
Chain of Peregrin (P55201 whole entry): as the sequence (P55201 whole entry) above

[55] = molecular target: Bromodomain testis-specific protein (Homo sapiens) (UniProt Q58F21); conditions: Compound concentration 10.0 uM; remark: listed apart in the source
[56] = molecular target: Bromodomain adjacent to zinc finger domain protein 1A (Homo sapiens) (UniProt Q9NRL2); conditions: Compound concentration 10.0 uM
[57] = molecular target: Bromodomain and PHD finger-containing protein 3 (Homo sapiens) (UniProt Q9ULD4); conditions: Compound concentration 10.0 uM
[58] = molecular target: Transcription intermediary factor 1-alpha (Homo sapiens) (UniProt O15164); conditions: Compound concentration 10.0 uM; remark: listed apart in the source

## COc1cc(C#N)ccc1S(=O)(=O)Nc1ccc2c(c1)cc(C)c(=O)n2C
[1]
  ΔTm: 0.4 °C
[2]
  ΔTm: 0.74 °C
[3]
  ΔTm: -2.61 °C
[4]
  ΔTm: 0.15 °C
[5]
  ΔTm: 0.3 °C
Peregrin (Homo sapiens) [6]
  ΔTm: 1.19 °C
[7]
  ΔTm: 0.11 °C
[8]
  ΔTm: 0.55 °C
[9]
  ΔTm: 1.1 °C
[10]
  ΔTm: 0.81 °C
[11]
  ΔTm: 0.47 °C
Peregrin (Homo sapiens) [12]
  ΔTm: 12.3 °C and 10.8 °C
[13]
  ΔTm: 1.64 °C
[14]
  ΔTm: 0.3 °C
[15]
  ΔTm: 0.93 °C and 1.25 °C
[16]
  ΔTm: 1.15 °C
[17]
  inhibition: 49.2%
[18]
  ΔTm: 0.49 °C and 1.24 °C
[19]
  inhibition: 35.4%
[20]
  ΔTm: 0.14 °C
[21]
  ΔTm: 0.58 °C
[22]
  ΔTm: 0.79 °C
[23]
  ΔTm: 0.32 °C
[24]
  ΔTm: 1.21 °C
[25]
  ΔTm: -0.43 °C
[26]
  ΔTm: 0.53 °C
[27]
  ΔTm: 0.4 °C
[28]
  ΔTm: 0.58 °C
[29]
  ΔTm: 0.31 °C
[30]
  ΔTm: 6.81 °C
[31]
  ΔTm: 0.42 °C
[32]
  ΔTm: -0.24 °C
[33]
  ΔTm: 0.83 °C
[34]
  ΔTm: 0.79 °C
[35]
  ΔTm: 0.72 °C
[36]
  ΔTm: 2.08 °C
[37]
  inhibition: 6.61% and 8.15%
[38]
  ΔTm: 5.67 °C
[39]
  inhibition: 4.03%
[40]
  ΔTm: -0.01 °C
[41]
  inhibition: 99.7%
[42]
  ΔTm: 0.62 °C
[43]
  ΔTm: 4.57 °C and 3.61 °C
[44]
  ΔTm: 5.4 °C
[45]
  IC50: 315 nM
[46]
  ΔTm: 1.35 °C
[47]
  ΔTm: 0.5 °C
[48]
  ΔTm: 0.43 °C
[49]
  inhibition: 9.82%
[50]
  inhibition: 4.5%
[51]
  ΔTm: 0.38 °C
[52]
  ΔTm: 0.1 °C
[53]
  ΔTm: 0.17 °C
[54]
  ΔTm: 0.45 °C
Peregrin
  IC50: 47.2 nM
[55]
  ΔTm: 0.25 °C
[56]
  ΔTm: 0.38 °C
[57]
  ΔTm: 5.43 °C
[58]
  ΔTm: 2.11 °C and 2.01 °C
